Data from patent US8247211B2, “Glycopeptide antibiotics” (American Cyanamid Company, priority 2001, dated 2012).
≈ marks a conversion by molar mass, not a printed value.

Assays:
Assay in all cases: In vitro antibacterial evaluation: minimum inhibitory concentration (MIC), broth dilution method
Format in all cases: cell-based
[1] = tested on: Streptococcus sp.; conditions: 18 hours at 35° C.
Procedure: (§1) The minimum inhibitory concentration (MIC), the lowest concentration of the antibiotic which inhibits growth of the test organism, is determined by the broth dilution method using Muller-Hinton II […] (Baltimore Biological Laboratories) following the recommendations of the National Committee for Clinical Laboratory Standards [Methods for dilution antimicrobial susceptibility tests for bacteria that grow aerobically, approved standard M7-A2, National Committee for Clinical Laboratory Standards, Villanova, Pa].
(§2) An inoculum level of 5×10^5 CFU/mL, and a range of antibiotic concentrations (64-0.06 μg/mL) is used. […] The test organisms include a spectrum of Gram-positive bacteria comprised of Staphylococcus sp., Streptococcus sp. and Enterococcus sp. These organisms include recent clinical isolates that are resistant to methicillin, penicillin and/or vancomycin.

[2] = tested on: Escherichia coli; conditions: 18 hours at 35° C.
Procedure: as §1, §2

[3] = tested on: Enterococcus sp.; conditions: 18 hours at 35° C.
Procedure: as §1, §2

[4] = tested on: Staphylococcus sp.
Procedure: as §1, §2

[5] = broth dilution, inoculum 5×10^5 CFU/mL

In the case of `CC(c1ccccc1)C1NC(=O)CNC(=O)C(CO)NC(=O)C(C(O)C2CNC(=N)N2C2OC(CO)C(O)C(O)C2O)NC(=O)C(C(O)C2CNC(=N)N2)NC(=O)C(Cc2ccc(OC3OC(CO)C(OC4OC5COC6(CC(C)(C)CC(C)(C)C6)OC5C(O)C4O)C(O)C3O)cc2)NC1=O` (stereo not drawn) [Example 207, Cyclo[glycyl-β-methylphenylalanyl-O-[4-O-[4,6-O-(3,3,5,5-tetramethylcyclohexylidene)hexopyranosyl]hexopyranosyl]tyrosyl-3-(2-iminoimidazolidin-4-yl)seryl-3-(3-hexopyranosyl-2-iminoimidazolidin-4-yl)serylseryl]], the “MIC Streptococcus agalactiae (GC 4564)” value ([1]; Streptococcus agalactiae (GC 4564)) is reported as <0.12 µg/mL, the “MIC Streptococcus pneumoniae (ATCC 6301)” value ([1]; Streptococcus pneumoniae (ATCC 6301)) is reported as <0.12 µg/mL and the “MIC Streptococcus pneumoniae (GC 1894)” value ([1]; Streptococcus pneumoniae (GC 1894)) is reported as <0.12 µg/mL. For the same compound, the “MIC Streptococcus pneumoniae (GC 4565)” value ([1]; Streptococcus pneumoniae (GC 4565)) was <0.12 µg/mL, the “MIC Streptococcus pyogenes (GC 4563)” value ([1]; Streptococcus pyogenes (GC 4563)) was <0.12 µg/mL and the “MIC Streptococcus agalactiae (GC 4564)” value [1, 5] was <0.12 µg/mL. For the same compound, the “MIC Streptococcus pneumoniae (ATCC 6301)” value [1, 5] was <0.12 µg/mL, the “MIC Streptococcus pneumoniae (GC 1894)” value [1, 5] was <0.12 µg/mL and the “MIC Streptococcus pneumoniae (GC 4565)” value [1, 5] was <0.12 µg/mL. For the same compound, the “MIC Streptococcus pyogenes (GC 4563)” value [1, 5] was <0.12 µg/mL, the “MIC Escherichia coli (ATCC 25922)” value ([2]; Escherichia coli (ATCC 25922)) was 32 µg/mL (≈ 22.4 µM) and the “MIC Escherichia coli (GC 4559)” value ([2]; Escherichia coli (GC 4559)) was 64 µg/mL (≈ 44.7 µM). For the same compound, the “MIC Escherichia coli (GC 4560)” value ([2]; Escherichia coli (GC 4560)) was 2 µg/mL (≈ 1.4 µM), the “MIC Enterococcus avium (GC 4558)” value ([3]; Enterococcus avium (GC 4558)) was 1 µg/mL (≈ 0.699 µM) and the “MIC Enterococcus faecalis (ATCC 29212)” value ([3]; Enterococcus faecalis (ATCC 29212)) was 4 µg/mL (≈ 2.79 µM). The “MIC Enterococcus faecalis (GC 2242)” value ([3]; Enterococcus faecalis (GC 2242)) was 4 µg/mL (≈ 2.79 µM), the “MIC Enterococcus faecalis (GC 2691)” value ([3]; Enterococcus faecalis (GC 2691)) was 2 µg/mL (≈ 1.4 µM) and the “MIC Enterococcus faecalis (GC 3059)” value ([3]; Enterococcus faecalis (GC 3059)) was 2 µg/mL (≈ 1.4 µM). The “MIC Enterococcus faecalis (GC 4552)” value ([3]; Enterococcus faecalis (GC 4552)) was 4 µg/mL (≈ 2.79 µM), the “MIC Enterococcus faecalis (GC 4553)” value ([3]; Enterococcus faecalis (GC 4553)) was 4 µg/mL (≈ 2.79 µM) and the “MIC Enterococcus faecalis (GC 4554)” value ([3]; Enterococcus faecalis (GC 4554)) was 4 µg/mL (≈ 2.79 µM). For the same compound, the “MIC Enterococcus faecalis (GC 6189)” value ([3]; Enterococcus faecalis (GC 6189)) was 2 µg/mL (≈ 1.4 µM), the “MIC Enterococcus faecium (GC 2243)” value ([3]; Enterococcus faecium (GC 2243)) was 4 µg/mL (≈ 2.79 µM) and the “MIC Enterococcus faecium (GC 4556)” value ([3]; Enterococcus faecium (GC 4556)) was 4 µg/mL (≈ 2.79 µM). For the same compound, the “MIC Enterococcus faecium (GC 4557)” value ([3]; Enterococcus faecium (GC 4557)) was 2 µg/mL (≈ 1.4 µM), the “MIC Enterococcus avium (GC 4558)” value [3, 5] was 1 µg/mL (≈ 0.699 µM) and the “MIC Enterococcus faecalis (ATCC 29212)” value [3, 5] was 4 µg/mL (≈ 2.79 µM). For the same compound, the “MIC Enterococcus faecalis (GC 2242)” value [3, 5] was 4 µg/mL (≈ 2.79 µM), the “MIC Enterococcus faecalis (GC 2691)” value [3, 5] was 2 µg/mL (≈ 1.4 µM) and the “MIC Enterococcus faecalis (GC 3059)” value [3, 5] was 2 µg/mL (≈ 1.4 µM). The “MIC Enterococcus faecalis (GC 4552)” value [3, 5] was 4 µg/mL (≈ 2.79 µM), the “MIC Enterococcus faecalis (GC 4553)” value [3, 5] was 4 µg/mL (≈ 2.79 µM) and the “MIC Enterococcus faecalis (GC 4554)” value [3, 5] was 4 µg/mL (≈ 2.79 µM). The “MIC Enterococcus faecalis (GC 6189)” value [3, 5] was 2 µg/mL (≈ 1.4 µM), the “MIC Enterococcus faecium (GC 2243)” value [3, 5] was 4 µg/mL (≈ 2.79 µM) and the “MIC Enterococcus faecium (GC 4556)” value [3, 5] was 4 µg/mL (≈ 2.79 µM). For the same compound, the “MIC Enterococcus faecium (GC 4557)” value [3, 5] was 2 µg/mL (≈ 1.4 µM), the “MIC Staphylococcus aureus (ATCC 29213)” value ([4]; strain ATCC 29213) was 1 µg/mL (≈ 0.699 µM) and the “MIC Staphylococcus aureus (GC 1131)” value ([4]; strain GC 1131) was 2 µg/mL (≈ 1.4 µM). The “MIC Staphylococcus aureus (GC 3051)” value ([4]; strain GC 3051) was 2 µg/mL (≈ 1.4 µM), the “MIC Staphylococcus aureus (GC 3053)” value ([4]; strain GC 3053) was 1 µg/mL (≈ 0.699 µM) and the “MIC Staphylococcus aureus (GC 4541)” value ([4]; strain GC 4541) was 1 µg/mL (≈ 0.699 µM). For the same compound, the “MIC Staphylococcus aureus (GC 4542)” value ([4]; strain GC 4542) was 1 µg/mL (≈ 0.699 µM), the “MIC Staphylococcus aureus-SMITH (GC 4543)” value ([4]; strain GC 4543) was 1 µg/mL (≈ 0.699 µM) and the “MIC Staphylococcus aureus (GC 4544)” value ([4]; strain GC 4544) was 1 µg/mL (≈ 0.699 µM). For the same compound, the “MIC Staphylococcus aureus (GC 4545)” value ([4]; strain GC 4545) was 1 µg/mL (≈ 0.699 µM), the “MIC Staphylococcus haemolyticus (GC 4546)” value ([4]; strain GC 4546) was 1 µg/mL (≈ 0.699 µM) and the “MIC Coagulase Negative Staphylococcus (GC 4547)” value ([4]; strain GC 4547) was 1 µg/mL (≈ 0.699 µM). The “MIC Coagulase Negative Staphylococcus (GC 4548)” value ([4]; strain GC 4548) was 0.5 µg/mL (≈ 0.349 µM), the “MIC Coagulase Negative Staphylococcus (GC 4549)” value ([4]; strain GC 4549) was 0.5 µg/mL (≈ 0.349 µM) and the “MIC Coagulase Negative Staphylococcus (GC 4551)” value ([4]; strain GC 4551) was 4 µg/mL (≈ 2.79 µM).
